Legend:
[1] = test system: cerulein-induced acute pancreatitis; test: cerulein-induced acute pancreatitis (AP) in WT and Hpa-Tg mice; assay type: in vivo; details: for pancreato-protective effects against AP: early (pre) or post treatment, 10 mg/mouse, FIGS. 3-4; for tolerability: 16 and 32 mg/kg doses; for severity of AP: 16 and 32 mg/kg doses i.p., pre-treatment, FIGS. 5 and 6
Protocol: (§1) Studies utilized wild type (WT) BALB/c mice and heparanase transgenic (Hpa-Tg) mice in which the human heparanase gene is driven by a constitutive β-actin promoter (19) in a BALB/c genetic background. Animals were fed standard mouse chow and tap water ad libitum. All experiments were approved and performed according to the Technion's guidelines of the Committee for the Supervision of Animal Experiments.
Mice were injected with either cerulein (intraperitoneally, […], 5 times at 1 hour apart) (Sigma-Aldrich), or saline (0.9% NaCl) (control group). Additional groups of mice were pretreated with either Aspirin (250 mg/kg, SC) and Trehalose (2000 mg/kg, ip) alone or combined. Additional groups of animals were pre- and post-treated with Aspirlose (10 mg/mouse). […] Finally, the inventors tested the effectivity of “Indose” and “Diclose” at various concentrations against AP. Mice were sacrificed 24 hours later, and serum samples and pancreatic tissue were collected for measurements of blood amylase and lipase levels, pancreatic index (pancreas/body weight ratio), and for histological analysis. Portion of pancreas tissues were also homogenized, and lysate samples were subjected to immunoblotting.
Pancreatic tissue samples were fixed in 10% neutral-buffered formalin progressively dehydrated in graduated alcohol and embedded in paraffin. Five-micron (5 μm) sections were stained with hematoxylin and eosin (H&E).

[2] = acute toxicity, intraperitoneal injection in wild type mice; details: mouse, in vivo, ip; intraperitoneal injection, sterile water as carrier, groups of 5 wild type mice
Protocol: (§2) Further, the inventors examined the acute toxicity of the compounds Indose and Diclose. A series of dosages: 8 mg/kg, 32 mg/kg, 64 mg/kg, 128 mg/kg, 256 mg/kg, 512 mg/kg, 768 mg/kg, 1024 mg/kg, 1,100 mg/kg, and 1,200 mg/kg were injected by intraperitoneal injection in the presence of sterile water as carrier. Each dosage was injected to a group of 5 wild type mice.

wild type mice = test: as above; details: mouse, in vivo, ip; for mortality: 500 mg/kg
Protocol: as §2

[3] = test system: ischemia-reperfusion acute kidney injury; test: ischemia-reperfusion (I/R) acute kidney injury (AKI) model in WT FVB/N mice; assay type: in vivo; details: administered short time after induction of AKI, FIGS. 13A-13C
Protocol: (§3) Renal ischemia was induced by clamping the renal artery of both kidneys for 30 min followed by reperfusion (I/R). The inventors tested the effectivity of “Indose” and “Diclose” before induction of ischemia (e.g., “prophylactic effect” or “pre-treatment”) or after (e.g., “treating effect” or “post-treatment”), using the dosing as disclosed hereinabove. Mice were sacrificed 48 hours later, and serum samples and kidney tissue were collected for measurements of blood creatinine and urea nitrogen levels, kidney index (kidney/body weight ratio), and for histological analysis. Portion of kidney tissues were also homogenized, and lysate samples were subjected to mRNA extraction, and expression analysis of neutrophil gelatinase-associated lipocalin (NGAL) and kidney injury molecule-1 (KIM-1).
The inventors used the ischemia-reperfusion (I/R)-AKI model in mice. The pathogenesis of this disease was evaluated based on kidney edema, blood creatinine (Scr), and blood urea nitrogen (BUN) levels were determined 48 hours following AKI induction. Further, the inventors performed histopathological analysis, as well as expression analysis of the renal injury biomarkers neutrophil gelatinase-associated lipocalin (NGAL), kidney injury molecule-1 (KIM-1). […]

[4] = test system: ischemia-reperfusion acute kidney injury; test: ischemia-reperfusion (I/R) acute kidney injury (AKI) model in Hpa-Tg mice; assay type: in vivo; details: pretreatment; for expression level of NGAL in kidney / expression level of KIM-1 in kidney: female Hpa-Tg mice; for expression level of NGAL in kidney / NGAL expression in kidney: FIG. 11A; for expression level of KIM-1 in kidney: FIG. 11B; for NGAL expression in kidney: male Hpa-Tg mice; for kidney weight normalized to body weight (KW/BW): Hpa-Tg mice, 48 h after AKI, FIGS. 7A and 8A; for gross morphology and histopathology of kidneys: Indose 16 mg/kg i.p., Diclose 32 mg/kg i.p., male and female Hpa-Tg mice, FIGS. 9 and 10; for increase of blood urea nitrogen (BUN) following AKI / increase of serum creatinine (SCr) following AKI: male Hpa-Tg mice (trend persisted in females), 48 h from AKI induction
Protocol: as §1, §3
The inventors used the ischemia-reperfusion (I/R)-AKI model in mice. The pathogenesis of this disease was evaluated based on kidney edema, blood creatinine (Scr), and blood urea nitrogen (BUN) levels were determined 48 hours following AKI induction. Further, the inventors performed histopathological analysis, as well as expression analysis of the renal injury biomarkers neutrophil gelatinase-associated lipocalin (NGAL), kidney injury molecule-1 (KIM-1).
AKI was induced in the absence or presence of pretreatment with Indose (16 mg/kg, i.p.) or Diclose (32 mg/kg, i.p.), respectively in Hpa-Tg mice (males and females). Untreated Hpa-Tg male and female mice that underwent sham operation served as control group. […] In male mice pretreated with Diclose and Indose, a reduction in NGAL expression was also observed (FIG. 11A). This trend persisted in female mice although the elevation in SCr and BUN following AKI was to a lesser extent.

[5] = test system: cerulein-induced acute pancreatitis; details: previous studies; cited from earlier work
[6] = WT and Hpa-Tg mice, cerulein treatment, FIG. 1

SMILES | pancreato-protective effects against AP [1] | LD50 [2] [mg/kg] | toxicity (overall) (wild type mice) | mortality (wild type mice) | tolerability ([1]; WT and Hpa-Tg mice) | severity of AP ([1]; WT and Hpa-Tg mice) | effects on AKI, post-treatment [3] | expression level of NGAL in kidney [4] | expression level of KIM-1 in kidney [4] | NGAL expression in kidney [4] | kidney weight normalized to body weight (KW/BW) [4] | gross morphology and histopathology of kidneys [4] | increase of blood urea nitrogen (BUN) following AKI [4] | increase of serum creatinine (SCr) following AKI [4] | tissue edema (histopathology of pancreas) ([1]; WT and Hpa-Tg mice exposed to cerulein, FIG. 2) | elevation in biochemical parameters (serum amylase and lipase) [1, 6] | pancreatic edema (pancreatic index, % Pancreatic weight/Body weight) [1, 6] | pancreas edema and inflammation, induction of cytokines and signaling molecules following cerulein administration [5]
CC(=O)Oc1ccccc1C(=O)OCC1O[C@H](O[C@H]2O[C@H](COC(=O)c3ccccc3OC(C)=O)[C@@H](O)[C@H](O)[C@H]2O)[C@H](O)[C@@H](O)[C@@H]1O (some centres unmarked) [Asprilose dimer] | pancreato-protective effects |  |  |  |  |  |  |  |  |  |  |  |  |  |  |  |  | 
CC(=O)Oc1ccccc1C(=O)OC[C@H]1O[C@H](O[C@H]2OC(CO)[C@@H](O)[C@H](O)[C@H]2O)[C@H](O)[C@@H](O)[C@@H]1O (some centres unmarked) [Asprilose mono] | pancreato-protective effects |  |  |  |  |  |  |  |  |  |  |  |  |  |  |  |  | 
O=C(Cc1ccccc1Nc1c(Cl)cccc1Cl)OC[C@H]1O[C@H](O[C@H]2O[C@H](CO)[C@@H](O)[C@H](O)[C@H]2O)[C@H](O)[C@@H](O)[C@@H]1O [Diclose, Trehalose-Dichlorofenac] |  | 780 | low toxicity | No mortality was observed | well tolerated | reduced the severity of AP | curative effects of AKI, with the effects of Diclose being more pronounced | effectively reduced | effectively reduced | reduction | significantly reduced | resembled kidneys of the ‘Sham’ control group | remarkably attenuated | remarkably attenuated |  |  |  | 
Cc1c(CC(=O)OC[C@H]2O[C@H](O[C@H]3O[C@H](CO)[C@@H](O)[C@H](O)[C@H]3O)[C@H](O)[C@@H](O)[C@@H]2O)c2ccccc2n1C(=O)c1ccc(Cl)cc1 [Indose, Trehalose-Indomethacin] |  | 900 | low toxicity | No mortality was observed | well tolerated | reduced the severity of AP | curative effects | effectively reduced | effectively reduced | reduction | significantly reduced | resembled kidneys of the ‘Sham’ control group | remarkably attenuated | remarkably attenuated |  |  |  | 
CC(C)CCC[C@@H](C)[C@H]1CC[C@H]2[C@@H]3CC[C@H]4C[C@@H](O[C@@H]5O[C@H](COS(=O)(=O)O)[C@@H](O[C@H]6O[C@H](COS(=O)(=O)O)[C@@H](O[C@H]7O[C@H](COS(=O)(=O)O)[C@@H](O[C@H]8O[C@H](COS(=O)(=O)O)[C@@H](OS(=O)(=O)O)[C@H](OS(=O)(=O)O)[C@H]8OS(=O)(=O)O)[C@H](OS(=O)(=O)O)[C@H]7OS(=O)(=O)O)[C@H](OS(=O)(=O)O)[C@H]6OS(=O)(=O)O)[C@H](OS(=O)(=O)O)[C@H]5OS(=O)(=O)O)CC[C@]4(C)[C@H]3CC[C@]12C [PG545, reference compound] |  |  |  |  |  |  |  |  |  |  |  |  |  |  | markedly restored | markedly reduced | markedly reduced | attenuated markedly
